We go through 10 compounds from patent US11358947B2, “Substituted 2-acylamino-cycloalkylthiophene-3-carboxylic acid arylamides as inhibitors of calcium-activated chloride channel TMEM16A” (THE REGENTS OF THE UNIVERSITY OF CALIFORNIA, priority 2017, dated 2022).

In series [1] the target is T1, TMEM16A (Homo sapiens, UniProt Q5XXA6).
T1 sequence (Q5XXA6 1-986): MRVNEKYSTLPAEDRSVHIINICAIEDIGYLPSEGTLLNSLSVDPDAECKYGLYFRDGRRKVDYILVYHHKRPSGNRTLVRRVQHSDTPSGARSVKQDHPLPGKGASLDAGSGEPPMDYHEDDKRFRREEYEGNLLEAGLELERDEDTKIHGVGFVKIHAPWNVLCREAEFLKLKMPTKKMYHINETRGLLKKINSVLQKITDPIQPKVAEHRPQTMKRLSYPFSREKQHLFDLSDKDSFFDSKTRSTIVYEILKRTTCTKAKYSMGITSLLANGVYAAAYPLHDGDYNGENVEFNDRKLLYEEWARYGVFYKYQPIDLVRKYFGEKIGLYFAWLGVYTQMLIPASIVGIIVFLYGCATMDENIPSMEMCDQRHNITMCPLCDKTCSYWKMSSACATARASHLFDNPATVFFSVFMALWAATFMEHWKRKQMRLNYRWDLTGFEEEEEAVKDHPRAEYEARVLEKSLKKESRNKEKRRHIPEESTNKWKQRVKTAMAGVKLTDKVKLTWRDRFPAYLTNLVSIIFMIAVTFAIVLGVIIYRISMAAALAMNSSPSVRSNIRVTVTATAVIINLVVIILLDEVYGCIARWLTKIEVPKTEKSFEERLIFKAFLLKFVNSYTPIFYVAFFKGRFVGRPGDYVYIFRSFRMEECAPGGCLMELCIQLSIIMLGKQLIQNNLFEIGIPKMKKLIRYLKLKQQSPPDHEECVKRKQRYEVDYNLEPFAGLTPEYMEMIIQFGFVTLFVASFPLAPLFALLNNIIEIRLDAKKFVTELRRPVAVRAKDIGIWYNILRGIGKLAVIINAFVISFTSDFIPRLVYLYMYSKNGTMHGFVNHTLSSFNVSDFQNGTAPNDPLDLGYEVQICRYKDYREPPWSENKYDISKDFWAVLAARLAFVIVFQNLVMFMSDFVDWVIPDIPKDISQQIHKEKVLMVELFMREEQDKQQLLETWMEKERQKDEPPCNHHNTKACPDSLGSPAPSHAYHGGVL
The series is described as follows: TMEM16A functional fluorescence plate reader (FPR) assay, iodide influx in FRT cells with YFP. In kind it is cell-based. To be noted: TMEM16A-expressing FRT cells, compound 10 min before iodide/ATP. The method, then:
A high-throughput screening assay was previously developed to identify small molecule inhibitors of TMEM16A. […] The assay involved addition of test compounds to the cells for 10 min in a physiological chloride-containing solution, followed by addition of an iodide solution containing ATP. TMEM16A-facilitated iodide influx was determined from the initial time course of decreasing YFP fluorescence.
2-Acylamino-cycloalkylthiophene-3-carboxylic acid arylamides 6aa-6bw were initially evaluated for inhibition of TMEM16A anion channel function using a cell-based functional plate reader assay as reported.
Yields (%) are of the isolated or purified products. IC50 (μM) for inhibition of TMEM16A anion conductance using a fluorescence plate reader (FPR) assay.
Cell lines and culture. Fischer Rat Thyroid (FRT) cells stably co-expressing TMEM16A, TMEM16B and human wild-type CFTR and the halide-sensitive yellow fluorescent protein (YFP)-H148Q were cultured as described. […] For plate reader assays, cells were plated in black 96-well microplates (Corning-Costar Corp., New York, N.Y.) at a density of 20,000 cells per well and assayed 24-48 hours after plating.
(§1) TMEM16A functional assay. TMEM16A functional plate-reader assay was done as previously described. […] Test compounds (0.5 μl in DMSO) were added to each well at specified concentration. […] The initial rate of I− influx following each of the solution additions was computed from fluorescence data by nonlinear regression. TMEM16B activity was assayed similarly as described using FRT cells co-expressing YFP and TMEM16B.

The subject of series [2] is SW-480 cells. The conditions noted are these: several tumor cell lines including SW480, reported; cited from earlier work.
Series [3] is described as follows: In vitro metabolic stability with rat liver microsomes and NADPH. In kind it is in vitro ADME. To be noted: rat liver microsomes + NADPH, 180 min. The method, then:
(3B) LC/MS traces showing total ion counts as a function of incubation time.
These compounds were incubated with rat liver microsomes and NADPH, and non-metabolized compounds were quantified by ESI-LCMS. […] It is speculated that Ani-9 could be oxidized at the aryl methyl or N—N bond; or hydrolyzed at the amide or hydrazone linkages.
Compounds (each 10 uM) were incubated for specific time points (2, 5, 15, 30, 60, 180 min) with shaking at 37° C. with rat liver microsomes (1 mg protein/mL, Sigma-Aldrich, St. Louis, Mo.) in potassium phosphate butler (100 mM) containing 1 mM NADPH. The mixture was then chilled on ice, and 0.5 mL of ice-cold ethyl acetate was added. Samples were centrifuged for 15 min at 3000 RPM. The supernatant was evaporated to dryness, and the residue was dissolved in 80 μL of mobile phase (acetonitrile:/water, 3:1, containing 0.1% formic acid) for LC/MS. Reverse-phase HPLC separation was carried out using a Waters C18 column (2.1 mm×100 mm, […]) equipped with a solvent delivery system (Waters model 2690, Milford, Mass.).
A general note: Microsomes from liver hold many membrane-bound enzymes, among them those of drug oxidation.

Another series relates to FRT null cells. As to the kind of experiment: Cytotoxicity by Alamar Blue assay in FRT cells. In kind it is cell-based, rat. The conditions noted are these: 8 h. The method, then: (§2) Concentration-dependent inhibition of TMEM16A measured by short-circuit current assay; TMEM16B and non-TMEM16 anion conductance measured using a fluorescence plate reader assay using FRT and HT-29 cells respectively; cell viability measured in FRT null cells.
(§3) We further assayed the compound potency on endogenous non-TMEM16A. Ca^2+-activated Cl^− channel in HT-29 cells.
Cytotoxicity. FRT cells were cultured overnight in black 96-well Costar microplates and incubated with 5 μM test compounds for 8 h. Cytotoxicity was measured by Alamar Blue assay (Invitrogen, Carlsbad, Calif.) as per the manufacturer's instructions.
On the technique in general: Alamar Blue is a resazurin reagent that responds to reducing activity.

The target in series [4] is T1, TMEM16A. As to the kind of experiment: Short-circuit current assay in TMEM16A-expressing FRT cells. In kind it is cell-based.
Source text: Measurements were done in FRT cells expressing TMEM16A.
as §2
Short-circuit current measurement. Short-circuit current measurements were done as described. (See Piechowicz, K. A. et al., J Enzyme Inhib Med Chem 2016, 1-7.) Briefly, Snapwell inserts (Corning Costar, Corning, N.Y.) containing TMEM16A-expressing FRT cells were mounted in Ussing chambers (Physiological instruments, San Diego, Calif.). The hemichambers were filled with 5 ml of HCO3^− buffered solution (basolateral) and half-Cl^− solution (apical), and the basolateral membrane was permeabilized with 250 μg/ml amphotericin B. Solutions were bubbled with 95% O2/5% CO2 and maintained at 37° C., and short-circuit current was measured on a DVC-1000 voltage clamp (World Precision Instruments Inc., Sarasota, Fla.) using Ag/AgCl electrodes and 3 M KCl agar bridges.

For series [5], the system named is SW-480 cells. As to the kind of experiment: SW-480 cell proliferation, AlamarBlue after 72 h. In kind it is cell-based. To be noted: for IC50: Homo sapiens, SW480, AlamarBlue after 72 h of drug treatment, read-out: IC50 inhibition of SW-480 cell proliferation. The method, then: Compounds according to the present disclosure (structures shown in FIG. 5B) were tested for their inhibitory effect on proliferation of SW-480 cell line.
SW-480 cells were cultured on plastic in Leibovitz L15 medium supplemented with 10% fetal bovine serum, 2 mM L-glutamine, 100 units/mL penicillin, and 100 μg/mL streptomycin. The cells were incubated at 37° C. without CO2.
SW-480 cells were plated into black 96-well microplates (Corning-Costar Corp., New York, N.Y.) at 10% seeding. The cells were treated with test compounds dissolved in DMSO in serial dilution while maintaining the final concentration of DMSO at 0.5%. Plated cells were then incubated for 72 h at 37° C. Cell proliferation was quantified using the AlamarBlue assay (Invitrogen, Carlsbad, Calif.) as per the manufacturer's instructions. Data was normalized against untreated control cells that were lysed for 10 minutes using Triton-X100 (0.1% in PBS).

In another series the target is T2, TMEM16B (Homo sapiens, UniProt Q9NQ90).
T2 construct: expressed in transfected cells; host or cells: Fischer Rat Thyroid (FRT) cells co-expressing YFP
T2 sequence (Q9NQ90 1-998): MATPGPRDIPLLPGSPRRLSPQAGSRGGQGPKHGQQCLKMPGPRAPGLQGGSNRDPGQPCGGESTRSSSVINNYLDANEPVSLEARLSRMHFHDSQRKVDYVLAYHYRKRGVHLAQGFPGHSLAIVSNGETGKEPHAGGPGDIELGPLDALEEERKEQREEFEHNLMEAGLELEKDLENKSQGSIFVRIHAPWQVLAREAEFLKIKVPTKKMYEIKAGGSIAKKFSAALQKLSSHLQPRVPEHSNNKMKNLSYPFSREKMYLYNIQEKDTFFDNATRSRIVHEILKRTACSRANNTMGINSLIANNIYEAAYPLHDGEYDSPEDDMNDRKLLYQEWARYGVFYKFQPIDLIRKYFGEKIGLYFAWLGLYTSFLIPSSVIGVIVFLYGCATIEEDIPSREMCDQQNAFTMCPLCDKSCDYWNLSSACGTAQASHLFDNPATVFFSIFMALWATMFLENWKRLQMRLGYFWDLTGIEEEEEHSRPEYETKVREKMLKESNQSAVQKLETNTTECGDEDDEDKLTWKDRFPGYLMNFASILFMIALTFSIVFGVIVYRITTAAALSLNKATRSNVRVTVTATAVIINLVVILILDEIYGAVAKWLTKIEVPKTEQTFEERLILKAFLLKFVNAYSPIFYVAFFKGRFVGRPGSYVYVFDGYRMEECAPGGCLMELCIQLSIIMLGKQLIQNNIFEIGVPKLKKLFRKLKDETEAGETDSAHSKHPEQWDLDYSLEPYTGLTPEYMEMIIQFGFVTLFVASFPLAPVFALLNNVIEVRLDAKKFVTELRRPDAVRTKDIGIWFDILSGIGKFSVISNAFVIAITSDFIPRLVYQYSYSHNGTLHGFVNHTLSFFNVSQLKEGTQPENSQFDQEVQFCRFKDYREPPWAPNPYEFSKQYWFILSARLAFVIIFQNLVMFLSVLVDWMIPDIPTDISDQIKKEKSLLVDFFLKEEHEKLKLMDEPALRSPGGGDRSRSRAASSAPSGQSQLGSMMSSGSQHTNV
The series is described as follows: TMEM16B fluorescence plate reader assay in FRT cells. In kind it is cell-based. The protocol: as §2, §3, §1

The structures appear in SMILES notation. Where “and” joins values, the source holds several entries; their conditions need not be identical. Equal values may be shown once.

In the case of `O=C(Nc1ccccc1OC(F)(F)F)c1c(NC(=O)C(F)(F)I)sc2c1CCC2` [Compound 6bw, 2-(2,2-Difluoro-2-iodo-acetylamino)-5,6-dihydro-4H-cyclopenta[b]thiophene-3-carboxylic add (2-trifluoromethoxy-phenyl)-amide], the IC50 against TMEM16A [1] is 1880 nM.
Take `CC(C)(C)C1CCc2c(sc(NC(=O)c3ccco3)c2C(=O)O)C1` (stereo not drawn) [CaCCinh-A01, 6-t-butyl-2-(furan-2-carboxamido)-4,5,6,7-tetrahydrobenzo[b] thiophene-3-carboxylic acid]: the “Concentrations reported to inhibit proliferation of TMEM16A-expressing tumor cell lines” value in the series on SW-480 cells [2] is 10 to 20 µM.
Consider `COc1ccccc1/C=N/NC(=O)COc1ccc(Cl)cc1C` [Ani-9, reference compound], for which the “Degradation (in words)” value in series [3] was “near complete degradation”.
As to `Cc1ccccc1NC(=O)c1c(NC(=O)C(F)(F)Cl)sc2c1CCCCC2` [Compound 6bk, 2-(2-Chloro-2,2-difluoro-acetylamino)-5,6,7,8-tetrahydro-4H-cyclohepta[b]thiophene-3-carboxylic acid o-tolylamide], in the series on FRT null cells, the “Cellular survival % at 5 μM” value is reported as 98%. The IC50 is 230 nM at TMEM16A [4]; 80 to 180 nM and 180 nM against TMEM16A [1]; 750 nM in the series with SW-480 cells [5]; 400 nM at TMEM16B.
Consider `O=C(Nc1ccccc1F)c1c(NC(=O)C(F)(F)F)sc2c1CCCCC2` [Compound 6aj, 2-(2,2,2-Trifluoro-acetylamino)-5,6,7,8-tetrahydro-4H-cyclohepta[b]thiophene-3-carboxylic acid (2-fluoro-phenyl)-amide], for which the IC50 on TMEM16A [1] amounted to 1300 nM.
Regarding `Cc1ccccc1NC(=O)c1c(NC(=O)C(F)(F)I)sc2c1CCCCC2` [Compound 6bn, 2-(2,2-Difluoro-2-iodo-acetylamino)-5,6,7,8-tetrahydro-4H-cyclohepta[b]thiophene-3-carboxylic acid o-tolylamide], in the series on FRT null cells, the “Cellular survival % at 5 μM” value amounted to 96%. In addition, the values for the IC50 at TMEM16A [4], at TMEM16A [1] and at TMEM16B were 730 nM, 600 nM and 1400 nM, respectively.
`Cc1ccc(NC(=O)c2c(NC(=O)C(F)(F)F)sc3c2CCCC3)cc1` [Compound 6aw, 2-(2,2,2-Trifluoro-acetylamino)-4,5,6,7-tetrahydro-benzo[b]thiophene-3-carboxylic acid p-tolylamide]: the IC50 on TMEM16A [1] was 200 to 300 nM and 220 nM.
Turning to `COc1ccc(Cl)cc1NC(=O)c1c(NC(=O)C(F)(F)F)sc2c1CCCCC2` [am1_47, N-(5-chloro-2-methoxyphenyl)-2-(2,2,2-trifluoroacetamido)-5,6,7,8-tetrahydro-4H-cyclohepta[b]thiophene-3-carboxamide], the IC50 in the series with SW-480 cells [5] came to 470 nM. For the same compound, the “Potency in inhibiting proliferation of SW480 cells compared with CaCCinh-A01 (in words)” value in the series with SW-480 cells [5] (SW480 cells) is “considerably more potent than CaCCinh-A01”.
Compound `CCC(=O)Nc1sc2c(c1C(=O)Nc1ccccc1)CCCCC2` [Compound 6ah, 2-Propionylamino-5,6,7,8-tetrahydro-4H-cyclohepta[b]thiophene-3-carboxylic acid phenylamide] gave an IC50 against TMEM16A [1] of 1200 nM.
The same measure, in the same setting: under `O=C(Nc1ccccc1)c1c(NC(=O)C(F)(F)Cl)sc2c1CCCCC2` [Compound 6bo, 2-(2-Chloro-2,2-difluoro-acetylamino)-5,6,7,8-tetrahydro-4H-cyclohepta[b]thiophene-3-carboxylic acid phenylamide] stands 925 nM.
